What was measured:
T4 DNA polymerase = target: T1, T4 DNA polymerase (Enterobacteria phage T4, UniProt P04415); experiment: Mesophilic DNA polymerase primer extension, T4; type: biochemical; parameters: key to result of incorporation (termination / further chain extension): T: Incorporation results in termination; E: Incorporation permits further chain extension; T/E: Predominant product is primer extended by one base, but evidence of some further extension also observed; details: DNA template, 37° C. for 20–40 minutes; for primer extended by at least one base within assay time (grade): TTP replaced entirely by test compound
T1 construct: purchased AP Biotech
T1 sequence (P04415 1-898): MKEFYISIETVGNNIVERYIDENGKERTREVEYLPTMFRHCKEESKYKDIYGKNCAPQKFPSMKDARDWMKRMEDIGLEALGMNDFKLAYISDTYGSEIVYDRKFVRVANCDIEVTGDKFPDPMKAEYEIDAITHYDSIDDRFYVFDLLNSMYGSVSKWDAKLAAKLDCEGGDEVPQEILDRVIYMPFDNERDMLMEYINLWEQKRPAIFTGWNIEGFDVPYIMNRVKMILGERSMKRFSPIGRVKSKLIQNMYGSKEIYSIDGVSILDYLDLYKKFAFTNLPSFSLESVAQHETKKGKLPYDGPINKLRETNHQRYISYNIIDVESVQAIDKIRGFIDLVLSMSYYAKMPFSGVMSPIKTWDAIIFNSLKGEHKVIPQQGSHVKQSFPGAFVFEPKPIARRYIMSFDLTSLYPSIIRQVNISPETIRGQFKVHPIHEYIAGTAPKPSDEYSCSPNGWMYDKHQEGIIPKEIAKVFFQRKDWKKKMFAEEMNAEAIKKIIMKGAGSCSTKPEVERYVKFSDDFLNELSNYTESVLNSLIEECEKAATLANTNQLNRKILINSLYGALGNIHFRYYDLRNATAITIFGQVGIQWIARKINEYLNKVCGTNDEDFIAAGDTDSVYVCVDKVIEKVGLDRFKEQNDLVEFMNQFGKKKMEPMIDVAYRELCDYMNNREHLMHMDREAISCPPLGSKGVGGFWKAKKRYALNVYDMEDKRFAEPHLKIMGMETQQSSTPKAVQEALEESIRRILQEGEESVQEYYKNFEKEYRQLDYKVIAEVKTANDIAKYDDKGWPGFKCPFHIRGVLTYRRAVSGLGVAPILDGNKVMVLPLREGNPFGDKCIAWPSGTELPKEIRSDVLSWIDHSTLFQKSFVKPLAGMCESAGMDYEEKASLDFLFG
Experimental: (§1) DNA polymerase assays were performed using Sequence 1 as primer and Sequence 2 as template. • Sequence 1 5′[Cy3]TAACTCATTAACAGGATC 3′ • Sequence 2 5′AT TCGCGGTATTCTGGTATGAAGCTTTTAGATCCTGTTAATGAGTTA GTA3′
(§2) The template (Sequence 2) was designed such that the base (underlined) immediately adjacent to the 3′ end of the hybridised primer is complementary to the nucleotide test compound. Nucleotide test compounds were compounds (6) (4′-C-(glycylaminomethyl)thymidine triphosphate), (8) (4′-C-(N-trifluoroacetyaminomethyl)thymidine triphosphate) and (9) (4′-C-(aminomethyl)thymidine triphosphate) as described above.
(§3) Primer extension reactions were performed using the above primers in the presence of 40 to 80 μM of nucleotide triphosphates. Positive control reactions contained all four native nucleotide triphosphates. For the other reactions the TTP was replaced with either a 2:1 ratio of […] for the terminator control, or entirely by the test compound The enzymes were used at a final concentration of 0.175 units/μl and a magnesium ion concentration of 2.5 mM in buffers supplied by the manufacturer. The primer and template concentrations were 0.5 pmol/μl and 2 pmol/μl respectively.
Extension reactions preformed with mesophilic polymerases were carried out by mixing all the components of the reaction except the enzyme and heating to 70° C. for 5 min. After the reactions had cooled to room temperature 0.175 units of the enzyme were added and the reactions heated to 37° C. for 20–40 minutes. The following enzymes were used: T7 DNA polymerase (T7); Sequenase 2™ (Seq); Klenow fragment of DNA polymerase 1 (Klen); phi-29 DNA polymerase (Phi-29); T4 DNA polymerase (T4) (all from AP Biotech) and Bst DNA polymerase (Bst) (Cambio Ltd).
(§4) The reactions were stopped by adding a 0.5 volume aliquot of 80% formamide containing 0.1% (w/v) bromophenol blue and 0.1% (w/v) cresol blue. The reaction products were separated by denaturing gel electrophoresis at a constant power of 45 W on 16% polyacrylamide gels containing 50% urea.
(§5) Gels were scanned for Cy3 fluorescence on a Molecular Dynamics Fluorimager and the data analysed using Molecular Dynamics ImageQuant 5 software.
(§6) The incorporation of a test nucleotide triphosphate results in the appearance on a polyacrylamide gel of a single band corresponding to a single base extension product. If, however, the enzyme adds additional bases then further bands would be observed that corresponded to either the full-length product or positions of other complementary bases in the template.

[1] = system: Retrotherm reverse transcriptase; experiment: Thermostable polymerase under reverse transcription conditions, Retroth.; type: biochemical; parameters: key to result of incorporation (termination / further chain extension): T: Incorporation results in termination; E: Incorporation permits further chain extension; T/E: Predominant product is primer extended by one base, but evidence of some further extension also observed; key to primer extended by at least one base within assay time (grade): −: No extension within assay time; +/−: up to 25% of primer extended by at least one base within assay time; +: up to 50% of primer extended by at least one base within assay time; ++: up to 75% of primer extended by at least one base within assay time; +++: essentially all primer extended by at least one base within assay time; details: RNA template, 2.5 mM Manganese ions; for primer extended by at least one base within assay time (grade): Tth reaction buffer
Experimental: as §1, §2, §3
Extension reactions with thermophilic enzymes were performed by initially denaturing the fully assembled reactions at 70° C. for 5 min. followed by 45° C. for 20–40 minutes. The following enzymes were used: Taq DNA polymerase (Taq); Thermosequenase (TS); Thermosequenase II (TSII); Thermosequenase E (TSE), Tfl DNA polymerase (Tfl); Tth DNA polymerase (Tth), deltaTts DNA polymerase (deltaTts), deltaTts D DNA polymerase (dettaTTSD) (all from APBiotech); Pfu DNA polymerase (Pfu) (Stratagene Ltd); Vent™ DNA polymerase (Vent) (New England Biolabs).
Reverse transcriptase reactions were performed essentially as described above for thermophilic and mesophilic enzymes. The template for these reactions was the RNA equivalent of sequence 2. All the thermophilic enzymes were assayed in Tth reaction buffer (Cambio Ltd, Cambridge UK) containing 2.5 mM Manganese ions. The following enzymes were used: Thermosequenase (TS1); Thermosequenase II (TSII); delta Tts DNA polymerase (deltaTts); delta Tts D DNA polymerase (deltaTtsD) (all from APBiotech); Retrotherm reverse transcriptase (Retroth) (Cambio Ltd); Tth DNA polymerase (Tth) (Cambio Ltd.).
as §4, §5, §6

For “4′-C-(Aminomethyl)thymidine triphosphate [compound (9)]”, the “result of incorporation (termination / further chain extension)” value (T4 DNA polymerase) was “T”, the “primer extended by at least one base within assay time (grade)” value (from here on “primer extended”) (T4 DNA polymerase) was “+ (up to 50% of primer extended by at least one base within assay time)” and the “result of incorporation (termination / further chain extension)” value [1] was “E”. For the same molecule, the “primer extended” value [1] was “+++”.

In the case of “4′-C-(Glycylaminomethyl)thymidine triphosphate [compound (6)]”, the “result of incorporation (termination / further chain extension)” value (T4 DNA polymerase) is reported as “T”, the “primer extended” value (T4 DNA polymerase) is reported as “+ (up to 50% of primer extended by at least one base within assay time)” and the “result of incorporation (termination / further chain extension)” value [1] is reported as “E”. For the same molecule, the “primer extended” value [1] was “++ (up to 75% of primer extended by at least one base within assay time)”.

`Cc1cn([C@H]2C[C@H](O)[C@@](CNC(=O)C(F)(F)F)(COP(=O)(O)OP(=O)(O)OP(=O)(O)O)O2)c(=O)[nH]c1=O` [compound (8), 4′-C-(N-trifluoroacetylaminomethyl)thymidine triphosphate] was tested, and the “result of incorporation (termination / further chain extension)” value (T4 DNA polymerase) was “T”, the “primer extended” value (T4 DNA polymerase) was “+ (up to 50% of primer extended by at least one base within assay time)” and the “result of incorporation (termination / further chain extension)” value [1] was “E”. For the same molecule, the “primer extended” value [1] was “++ (up to 75% of primer extended by at least one base within assay time)”.

Source: patent publication US7078499B2, “Nucleotide analogues comprising a reporter moiety and a polymerase enzyme blocking moiety” (GE Healthcare UK Limited, priority 2000, dated 2006)
